# Key:
# [1] = test system: mice; assay: Toxicity observation (behavior, weight, motor function) during intraventricular PNA treatment; type: in vivo; details: 1.0 μL (25 μg/μL) into the ventricle every other day
# Procedure: Animal treatment and tissue preparation: Aliquots of 1.0 μL (25 μg/μL) of a PNA oligomer specific for the expanded human HD allele (HDs) or a scrambled control PNA (HDscr) were administered into the ventricle every other day by injection via the cannula.
# [2] = test system: R6/2 mice; assay: Body weight of treated R6/2 mice; type: in vivo, mouse
# Procedure: (§1) Experiments were conducted to determine whether PNA-mediated inhibition of mutant huntingtin expression increased survival and/or reversed features of pathophysiology. R6/2 and non-transgenic mice were divided into two groups of three to five mice each, and treated with either HDs or ACSF for approximately ten weeks, beginning at five to six weeks of age. Treated animals received a dose of 0.15 mg/kg of the HDs PNA oligomer, administered by continuous infusion through an Alzet pump. All ACSF-treated transgenic mice died by three months of age.
# In other experiments, R6/2 mice were divided into five groups (designated groups 1-5) containing eight to ten animals each. Groups 1-4 received either saline (group 1) or a specific amount of HDs (groups 2-4). Group 5 included untreated R6/2 mice. A sixth group included untreated non-transgenic B6CBA control mice. At 8 weeks of age, each mouse was weighed to establish a weight stability baseline. Baselines for clasping behavior, motility, and motor skill were established at 9 weeks of age using the methods described in Example 1.
# (§2) At 9 weeks of age, the mice in each group received saline (group 1) or HDs at 2.0 mg/kg, 5.0 mg/kg, or 20.0 mg/kg (groups 2, 3, and 4, respectively) by i.p. injection every 48 hours. […] Weight stability, clasping behavior, motility, and motor skill were assessed weekly during the treatment period. […]
# [3] = test system: R6/2 mice; assay: Bar test to assess motor skill; type: in vivo, mouse; details: compared to untreated or saline treated R6/2 mice
# Description: Bar test to assess motor skill: Each mouse was held by its tail and allowed to grasp a bar (0.25 cm in diameter, 60 cm long) suspended 30 cm above a padded bench. After the mouse had firmly grasped the bar, the test was begun by releasing its tail. The mouse was allowed two minutes to “escape” by climbing along the bar to one of the bar supports. The mouse was given both performance and time ratings. Performance ratings were based on the following scale: 0, unable to hold bar; 1, holds bar, unable to bring hind limbs to bar; 2, holds bar, draws hind limbs to bar (i.e., 3 paws firmly on bar); 3, holds bar, moves along bar (i.e., moves at least 2 inches in a coordinated manner along bar); 4, escapes (i.e., mouse touches a bar support with one paw). Time ratings were based on the following scale: 0, unable to hold bar (0-3 seconds); 1, holds bar for 4-30 seconds; 2, holds bar for 31-60 seconds; 3, holds bar for 61-90 seconds; 4, holds bar for 91-120 seconds. If the mouse had not reached one of the bar supports by the end of the two minute test period it was removed from the bar. […]
# as §2
# [4] = test system: R6/2 mice; assay: Brain weight / brain atrophy of treated R6/2 mice; type: in vivo, mouse
# Procedure: as §1
# At 9 weeks of age, the mice in each group received saline (group 1) or HDs at 2.0 mg/kg, 5.0 mg/kg, or 20.0 mg/kg (groups 2, 3, and 4, respectively) by i.p. injection every 48 hours. The injections continued through 13 weeks of age (i.e., treatment for […]). Weight stability, clasping behavior, motility, and motor skill were assessed weekly during the treatment period. At the time of death or after the treatment period, the brain of each mouse was removed using standard methods. The brains were divided into hemispheres, and one hemisphere of each brain was saved for protein and mRNA analysis. The remaining hemispheres were fixed directly in 10% formalin for 5-7 days. After fixing, the brain hemispheres were weighed individually and processed for sectioning and pathophysiology.
# [5] = test system: non-transgenic mice; details: mouse, in vivo, 0.15 mg/kg
# Procedure: Cannulation and microsurgery—Method 2: Pump cannulas were prepared 48 hours before surgery. For adaptation to mice, Alzet pump cannulas were ground to a length of 2 mm. The cannulas then were sterilized by gas ozonation. Mice were anesthetized via i.p. injection with 100 mg/kg of a ketamine/xylazine solution containing 8 mg/mL ketamine and 1 mg/mL xylazine in 0.9% saline. Once anesthetized, each mouse was cannulated. Each anesthetized mouse was placed in a Stoelting Stereotaxic Frame with a mouse adapter (Stoelting Instruments). An incision was made using a scalpel, and the skin and tissue were pulled back with swabs to reveal the skull. The cannulation site was positioned for optimum access to the ventricle, at coordinates AP −0.2 mm, Horiz −1 mm from bregma. A cannula entry port and two bone screw ports were opened in the skull using a Dremel Flex Shaft Drill (Stoelting Instruments) with a 2.1 mm burr. The cannula was lowered into place and affixed using Loctite 454 (Loctite Corp., Avon, Ohio). An Alzet Mini-Osmotic Pump was inserted into a pouch beneath the skin and attached to the cannula with silastic tubing. The wound was closed using wound clips and the animal was allowed to recuperate.
# Delivery of PNA oligomer solutions: All handling of tubing and cannulas was done under sterile conditions. […]
substance,measurement,setting,value
"HDs: sense PNA oligomer, 14 residues, 5′-GGACTGCCGTGCCG-3′ (SEQ ID NO:3), specific for the expanded human HD allele (all peptide nucleic acid (PNA))",toxicity as measured by weight or motor function relative to untreated animals,[1],no effects of toxicity
same,weight stability over the treatment period,"[2]; R6/2 mice, 5.0 mg/kg i.p. every 48 hours, compared to 2.0 mg/kg or 20.0 mg/kg",more stable weight
same,body weight over time,"[2]; surviving R6/2 mice, 0.15 mg/kg continuous infusion by Alzet pump",continued to gain weight over time
same,motor skill (bar test),[3]; 5.0 mg/kg i.p. every 48 hours,increased motor skill
same,motor skill (bar test),[3]; 20.0 mg/kg i.p. every 48 hours,increased motor skill
same,general brain atrophy typical of untreated R6/2 mice,"[4]; R6/2 mice, 0.15 mg/kg continuous infusion by Alzet pump",did not display the general brain atrophy
same,recovery in brain hemisphere weight as compared to untreated non-transgenic mice,"[4]; R6/2 mice, 20.0 mg/kg i.p. every 48 hours",greatest degree of recovery
same,brain hemisphere weight,"[4]; R6/2 mice, all doses (2.0, 5.0, 20.0 mg/kg i.p. every 48 hours), dose dependent effect",greater than the weights of brain hemispheres from untreated R6/2 mice
same,brain weight,"[4]; two non-surviving treated R6/2 mice, 0.15 mg/kg continuous infusion by Alzet pump",increased brain weight
same,effect of treatment on non-transgenic animals,[5],appeared unaffected

# From US20040009899A1, “Treating dominant disorders” (priority 2002, published 2004)
